Reference: patent US10596110B2, “Residence structures and related methods” (Massachusetts Institute of Technology, priority 2014, dated 2020)

Experiment: Stability of drugs in acidic conditions, in solution or in PCL structures (HPLC)
Type: physicochemical
Settings: IAW, pH=1, 37° C.
Protocol: Stability of drugs in the gastric environment was evaluated using HPLC and LC-MS/MS analysis. Hydrophilic drugs were dissolved in simulated gastric fluid (SGF, 0.2% (w/v) NaCl, 0.83% (v/v) HCL, pH=1) in centrifuge tubes. Hydrophobic drugs were dissolved in IAW (isopropanol 70%, acetonitrile 20%, water 10%) with pH adjusted to 1 using HCL. As a control, drugs were dissolved in the same solvents with pH adjusted to 6.0 (using IM NaOH). After vortexing for 1 min and sonication for 10 min, tubes were placed in a shaking incubator (150 rpm, 37° C.). Samples were collected at defined time points for up to two weeks and analyzed by HPLC and LC-MS/MS to quantify the stability of drugs.
Stability of drugs loaded into PCL based delivery matrices were also studied. Loading of drugs is described below in Examples 16 and 17. Drug loaded structures were kept at acidic conditions (pH=1, 37° C.) and at defined intervals, drug was extracted from the PCL matrix and analyzed by HPLC and/or LC-MS/MS. In order to extract drugs, structures were sonicated in SGF (hydrophilic drugs) or isopropanol (hydrophobic drugs) for 10 min. Fresh drug in SGF or Isopropanol was prepared immediately before analysis as controls.
Ivermectin (IVM) loaded structures, shown in FIG. 16B, were placed in SGF+RH solution (pH=1, 37° C.) for 72 h. Drug was extracted by sonicating the structure in isopropanol for 10 min.

Question: Which “Stability in acidic conditions (in solution)” value does the source give for Ivermectin here?
Answer: The value was “unstable”.
